Target: T1, VEGF (human recombinant VEGFA165); VEGF‐induced VEGFR‐2 activation in HUVECs (Homo sapiens, UniProt P15692)
T1 construct: purchased R&D Systems, Abingdon, UK
T1 sequence (P15692 1-191 isoform P15692-4): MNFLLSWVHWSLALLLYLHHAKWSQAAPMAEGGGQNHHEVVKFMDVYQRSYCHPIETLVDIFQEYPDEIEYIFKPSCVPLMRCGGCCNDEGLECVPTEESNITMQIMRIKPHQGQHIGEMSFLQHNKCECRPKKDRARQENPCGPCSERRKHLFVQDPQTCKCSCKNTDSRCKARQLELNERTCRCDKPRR
Test: Inhibition of VEGF‐induced VEGFR‐2 phosphorylation in HUVECs after pre‐incubating VEGF with polyphenol (Phospho‐VEGFR‐2 Tyr1175 ELISA);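 further: sandwich ELISA of VEGFR-2 phosphorylated at Tyr1175 in lysates of confluent HUVECs, with VEGF alone and DMSO vehicle (≤0.1%) as control incubations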
Format: cell-based
Settings: for Inhibition (%): HUVECs; for IC50 (μM) / IC50: VEGF 25 ng/mL pre‐incubated 5 min with polyphenol, then HUVECs 5 min, phospho‐VEGFR‐2 ELISA, 95% confidence intervals in parentheses

For O=c1c(O)c(-c2ccccc2)oc2ccccc12 [3‐hydroxyflavone], the “Inhibition (%)” value (at 100 μM polyphenol) was 52.8 (100 μM) %.

O=c1cc(-c2ccc(O)c(O)c2)oc2c(O)c(O)ccc12 [3′,4′,7,8‐tetrahydroxyflavone] was tested, and the “Inhibition (%)” value (at 100 μM polyphenol) was 63.2 (100 μM) %.

With O=c1cc(-c2ccccc2)oc2cc(O)ccc12 [7‐hydroxyflavone] the “Inhibition (%)” value (at 100 μM polyphenol) was “Ineffective (100 μM)”.

In the case of Oc1cc(O)c2c(c1)O[C@H](c1ccc(O)c(O)c1)[C@@H](O)C2 [(+)‐Catechin], the “IC50 (μM)” value is reported as 214.7 (178. 2–258.7) μM and the “IC50” value (listed as (+)‐catechin) is reported as 215000 nM.

O=C1c2ccc(O)cc2O[C@H](c2cc(O)c(O)c(O)c2)[C@H]1O [(+)‐Dihydrorobinetin] was tested, and the “Inhibition (%)” value (at 50 μM polyphenol) was 66%.

For Oc1cc(O)c2c(c1)O[C@H](c1ccc(O)c(O)c1)[C@H](O)C2 [(−)‐Epicatechin], the “Inhibition (%)” value (at 200 μM polyphenol (highest concentration tested)) was “Ineffective (200 μM)”, the “Inhibition (%)” value (at 200 μM polyphenol (highest concentration tested), listed as (−)‐epicatechin) was “not an inhibitor” and the “Inhibition (%)” value (at 200 μM polyphenol (highest concentration tested), listed as epicatechin) was “ineffective”.

For O=C(O)/C=C/c1ccc(O)c(O)c1 [Caffeic acid], the “Inhibition (%)” value (at 50 μM polyphenol) was “Ineffective”.

O=C(/C=C/c1ccc(O)c(O)c1)O[C@@H]1C[C@](O)(C(=O)O)C[C@@H](O)[C@H]1O [Chlorogenic acid] was tested, and the “Inhibition (%)” value (at 50 μM polyphenol) was “Ineffective”.

In the case of O=c1cc(-c2ccccc2)oc2cc(O)cc(O)c12 [Chrysin], the “Inhibition (%)” value (at 100 μM polyphenol) is reported as 58.6 (100 μM) %.

In the case of Oc1cc(O)c2cc(O)c(-c3ccc(O)c(O)c3)[o+]c2c1 [Cyanidin], the “IC50” value is reported as 1050 nM, the “IC50 (μM)” value is reported as 1.053 (0.764–1.453) μM and the “log IC50” value (datapoint of Fig. 3B) is reported as 0.022. For the same molecule, the “fold lower IC50 compared with (+)‐catechin” value (ratio of IC50 values) was 200 fold.

With O=C(O[C@@H]1Cc2c(O)cc(O)cc2O[C@@H]1c1ccc(O)c(O)c1)c1cc(O)c(O)c(O)c1 [ECG, epicatechin gallate] the “IC50 (μM)” value was 0.16 (0.150–0.183) μM.

For Oc1cc(O)c2c(c1)O[C@H](c1cc(O)c(O)c(O)c1)[C@H](O)C2 [EGC, epigallocatechin], the “IC50 (μM)” value was 42.9 (36.96–49.97) μM.

In the case of O=C(O[C@@H]1Cc2c(O)cc(O)cc2O[C@@H]1c1cc(O)c(O)c(O)c1)c1cc(O)c(O)c(O)c1 [EGCG, epigallocatechin gallate], the “IC50 (μM)” value is reported as 0.088 (0.078–0.100) μM and the “fold lower IC50 than ECG” value (ratio of IC50 values) is reported as 2 fold.

With O=C1C[C@@H](c2ccc(O)c(O)c2)Oc2cc(O)cc(O)c21 [Eriodictyol] the “Inhibition (%)” value (at 50 μM polyphenol) was 20%.

O=c1cc(-c2ccccc2)oc2ccccc12 [Flavone] was tested, and the “Inhibition (%)” value (at 100 μM polyphenol) was “Ineffective (100 μM)” and the “Inhibition (%)” value (at 100 μM polyphenol, listed as flavone) was “ineffective”.

In the case of O=c1c(O)c(-c2ccccc2)oc2cc(O)cc(O)c12 [Galangin], the “Inhibition (%)” value (at 50 μM polyphenol) is reported as 85%.

In the case of O=C(O)c1cc(O)c(O)c(O)c1 [Gallic acid], the “Inhibition (%)” value (at 50 μM polyphenol) is reported as 32%.

O=c1c(-c2ccc(O)cc2)coc2cc(O)cc(O)c12 [Genistein] was tested, and the “Inhibition (%)” value (at 50 μM polyphenol) was 22%.

With O=c1c(O[C@@H]2O[C@H](CO)[C@@H](O)[C@H](O)[C@H]2O)c(-c2ccc(O)c(O)c2)oc2cc(O)cc(O)c12 [Hirsutrin] the “Inhibition (%)” value (at 50 μM polyphenol) was “Ineffective” and the “Inhibition (%)” value (at 50 μM polyphenol, listed as hirsutrin) was “completely ineffective”.

With O=c1c(O[C@@H]2O[C@H](CO)[C@H](O)[C@H](O)[C@H]2O)c(-c2ccc(O)c(O)c2)oc2cc(O)cc(O)c12 [Hyperoside] the “Inhibition (%)” value (at 50 μM polyphenol) was “Ineffective” and the “Inhibition (%)” value (at 50 μM polyphenol, listed as hyperoside) was “completely ineffective”.

For COc1cc(-c2oc3cc(O)cc(O)c3c(=O)c2O)ccc1O [Isorhamnetin], the “IC50 (μM)” value was 9.053 (7.676–10.68) μM and the “fold higher IC50 than quercetin” value (ratio of IC50 values) was 12 fold.

In the case of O=c1c(O)c(-c2ccc(O)cc2)oc2cc(O)cc(O)c12 [Kaempferol], the “IC50 (μM)” value is reported as 9.341 (7.749–11.26) μM.

For O=c1cc(-c2ccc(O)c(O)c2)oc2cc(O)cc(O)c12 [Luteolin], the “IC50 (μM)” value was 7.46 (6.592–8.446) μM.

With COC(=O)c1cc(O)c(O)c(O)c1 [Methyl gallate] the “Inhibition (%)” value (at 100 μM polyphenol) was “Ineffective (100 μM)”.

In the case of O=c1c(O)c(-c2ccc(O)cc2O)oc2cc(O)cc(O)c12 [Morin], the “IC50 (μM)” value is reported as 1.482 (1.357–1.618) μM and the “fold higher IC50 than quercetin” value (ratio of IC50 values) is reported as “about 2 fold”.

In the case of O=c1c(O)c(-c2cc(O)c(O)c(O)c2)oc2cc(O)cc(O)c12 [Myricetin], the “IC50 (μM)” value is reported as 0.121(0.102–0.144) μM and the “fold lower IC50 than EGC” value (ratio of IC50 values) is reported as greater than 300 fold.

For O=C1C[C@@H](c2ccc(O)cc2)Oc2cc(O)cc(O)c21 [Naringenin], the “Inhibition (%)” value (at 100 μM polyphenol) was 88.5 (100 μM) %.

In the case of O=c1c(-c2ccc(O)c(O)c2)coc2cc(O)cc(O)c12 [Orobol], the “IC50 (μM)” value is reported as 3.311 (3.047–3.598) μM, the “IC50” value (listed as orobol) is reported as 3310 nM and the “fold lower IC50 compared with luteolin” value (ratio of IC50 values) is reported as 2 fold.

For O=C(CCc1ccc(O)cc1)c1c(O)cc(O)cc1O[C@@H]1O[C@H](CO)[C@@H](O)[C@H](O)[C@H]1O [Phloridzin], the “Inhibition (%)” value (at 50 μM polyphenol) was “Ineffective” and the “Inhibition (%)” value (at 50 μM polyphenol, listed as phloridzin) was “completely ineffective”.

With OC[C@H]1O[C@@H](Oc2cc(O)cc(/C=C/c3ccc(O)cc3)c2)[C@H](O)[C@@H](O)[C@@H]1O [Piceid] the “Inhibition (%)” value (at 50 μM polyphenol) was 28%.

With O=c1c(O)c(-c2ccc(O)c(O)c2)oc2cc(O)c(O)c(O)c12 [Quercetagetin] the “IC50 (μM)” value was 0.096 (0.083–0.109) μM and the “fold more potent VEGF inhibitor than quercetin” value (ratio of IC50 values) was “sevenfold”.

With O=c1c(O)c(-c2ccc(O)c(O)c2)oc2cc(O)cc(O)c12 [Quercetin] the “IC50 (μM)” value was 0.754 (0.674–0.842) μM, the “IC50” value (listed as quercetin) was 750 nM and the “fold lower IC50 compared with (+)‐catechin” value (ratio of IC50 values) was greater than 250 fold. The “fold lower IC50 compared with luteolin” value (ratio of IC50 values) was 10 fold.

For C[C@@H]1O[C@@H](Oc2c(-c3ccc(O)c(O)c3)oc3cc(O)cc(O)c3c2=O)[C@H](O)[C@H](O)[C@H]1O [Quercitrin], the “Inhibition (%)” value (at 50 μM polyphenol) was “Ineffective” and the “Inhibition (%)” value (at 50 μM polyphenol, listed as quercitrin) was “completely ineffective”.

In the case of COc1cc(O)c2c(=O)c(O)c(-c3ccc(O)c(O)c3)oc2c1 [Rhamnetin], the “IC50 (μM)” value is reported as 0.547 (0.527–0.568) μM.

With C[C@@H]1O[C@@H](OC[C@H]2O[C@@H](Oc3c(-c4ccc(O)c(O)c4)oc4cc(O)cc(O)c4c3=O)[C@H](O)[C@@H](O)[C@@H]2O)[C@H](O)[C@H](O)[C@H]1O [Rutin] the “Inhibition (%)” value (at 50 μM polyphenol) was “Ineffective” and the “Inhibition (%)” value (at 50 μM polyphenol, listed as rutin) was “completely ineffective”.

COc1ccc(-c2cc(=O)c3c(OC)c(OC)c(OC)cc3o2)cc1OC [Sinensetin] was tested, and the “Inhibition (%)” value (at 100 μM polyphenol) was “Ineffective (100 μM)” and the “Inhibition (%)” value (at 100 μM polyphenol, listed as sinensetin) was “inhefective”.

For COc1ccc(-c2oc3cc(O)cc(O)c3c(=O)c2O)cc1O [Tamarixetin], the “Inhibition (%)” value (at 100 μM polyphenol) was 100 (100 μM) %.

For O=C1c2c(O)cc(O)cc2O[C@H](c2ccc(O)c(O)c2)[C@H]1O [Taxifolin], the “Inhibition (%)” value (at 100 μM polyphenol) was 12.3 (100 μM) %.

From article PMC4973850, “Molecular structure‐function relationship of dietary polyphenols for inhibiting VEGF‐induced VEGFR‐2 activity” (Molecular Nutrition & Food Research, 2015)
